From patent publication US20240306640A1, “BIOCIDAL MIXTURES” (LANXESS Deutschland GmbH, priority 2021, published 2024)

Experiments:
Assay in all cases: MIC, suppression of radial hyphal growth on malt extract nutrient agar
Format in all cases: cell-based
[1] = test system: Cladosporium cladosporioides; conditions: Example 3 synergism test, 26° C., read-out: MIC against Cladosporium cladosporioides (ppm)
Procedure: (§1) For this purpose, pieces of mycelium were punched out of a colony of the appropriate mold and incubated at 26° C. on a nutrient agar containing malt extract. Here, hyphal growth with and without active ingredient was compared.
(§2) Pieces of mycelium were punched out of a colony of the appropriate mold and incubated at 26° C. on a nutrient agar containing malt extract. Here, hyphal growth with and without active ingredient was compared.
(§3) The synergism was determined according to the method described by Kull et al. (F. C. Kull, P. C. Eismann, H. D. Sylvestrowicz, R. L. Mayer, Applied Microbiology 1961, 9, 538-541). The following relationships apply:
(§4) [formula] • SI=1 means additivity • SI>1 means antagonism • SI<1 means synergism • Qa=concentration of substance A which is the MIC • Qb=concentration of substance B which is the MIC • QA=concentration of substance A in the concentration of A/B at which microbial growth is suppressed • Qb=concentration of substance B in the concentration of A/B at which microbial growth is suppressed 3.1 Combinations of AZO and IPBC Against the Molds Aspergillus niger and Aspergillus versicolor

Trichoderma virens = conditions: Example 3 synergism test, 26° C., read-out: MIC against Trichoderma virens (ppm)
Procedure: as §1, §2, §3, §4

Stachybotrys chartarum = conditions: Example 3 synergism test, 26° C., read-out: MIC against Stachybotrys chartarum (ppm)
Procedure: as §1, §2, §3, §4

Aspergillus niger = conditions: Example 3 synergism test, 26° C., read-out: MIC (ppm) Aspergillus niger
Procedure: as §2, §3, §4

Aspergillus versicolor = conditions: Example 3 synergism test, 26° C., read-out: MIC (ppm) Aspergillus versicolor
Procedure: as §2, §3, §4

`CO/C=C(/C(=O)OC)c1ccccc1Oc1cc(Oc2ccccc2C#N)ncn1` [AZO, methyl (E)-2-{2-[6-(2-cyanophenoxy)pyrimidin-4-yloxy]phenyl}-3-methoxyacrylate] showed an MIC [1] of 5 µg/mL, an MIC (Trichoderma virens) of 1000 µg/mL and an MIC (Stachybotrys chartarum) of 100 µg/mL. It also gave an MIC (Aspergillus niger) of 5000 µg/mL and an MIC (Aspergillus versicolor) of 100 µg/mL.
